Laboratory results taken from patent publication US7820623B2 (priority 2006, dated 2010).
Bridge positions count the residues as written; N and C are the ends. Square brackets hold non-standard residues; d marks the D form. Peptide text beside a SMILES is read from it. 1Nal = N[C@@H](Cc1cccc2ccccc12)C(=O)O

What was measured:
[1] = test system: thapsigargin-induced IFN-g production in human whole blood; format: cell-based; conditions: read-out: Analogue Activity (IC50) WB/IFNg
[2] = test system: thapsigargin-induced IL-2 production in human whole blood; conditions: read-out: Analogue Activity (IC50) WB/IL-2

Structure (SMILES)	IC50 [1] [nM]	IC50 [2] [nM]
CC[C@H](C)[C@@H]1NC(=O)[C@H](CCCCN)NC(=O)[C@@H](NC(=O)[C@H](CCCCN)NC(=O)[C@@H](NC(=O)[C@H](CC(N)=O)NC(=O)[C@@H](NC(=O)[C@@H](NC(=O)[C@@H](NC(=O)CN)C(C)C)[C@@H](C)CC)[C@@H](C)CC)C(C)C)CSSC[C@@H]2NC(=O)[C@H](CCCCN)NC(=O)CNC(=O)[C@H](Cc3ccccc3)NC(=O)[C@H](CCCNC(=N)N)NC(=O)[C@H](CCSC)NC(=O)CNC(=O)[C@H](C)NC(=O)[C@H](CCCCN)NC(=O)[C@H](CCCCN)NC(=O)[C@@H]3CSSC[C@@H](C(=O)N[C@H](C(=O)N4CCC[C@H]4C(=O)N[C@@H](CCCCN)C(=O)O)[C@@H](C)O)NC(=O)[C@H](Cc4c[nH]cn4)NC(=O)[C@H](CSSC[C@H](NC(=O)[C@H](CCC(N)=O)NC(=O)[C@H](CCCNC(=N)N)NC(=O)[C@H](CO)NC1=O)C(=O)N[C@@H](CC(C)C)C(=O)N[C@@H](Cc1cccc4ccccc14)C(=O)N1CCC[C@H]1C(=O)N3)NC(=O)[C@H](CCCCN)NC(=O)CNC(=O)[C@H](CC(N)=O)NC(=O)[C@H](CCSC)NC2=O [E16Nal] (H-GVIINVKCKISRQCL[1Nal]PCKKAGMRFGKCMNGKCHCTPK-OH; disulfide 8-28, 14-33, 18-35)	1.51	1.02
CC[C@H](C)[C@@H]1NC(=O)[C@H](CCCCN)NC(=O)[C@@H](NC(=O)[C@H](CCCCN)NC(=O)[C@@H](NC(=O)[C@H](CC(N)=O)NC(=O)[C@@H](NC(=O)[C@@H](NC(=O)[C@@H](NC(=O)CN)C(C)C)[C@@H](C)CC)[C@@H](C)CC)C(C)C)CSSC[C@@H]2NC(=O)[C@H](CCCCN)NC(=O)CNC(=O)[C@H](Cc3ccccc3)NC(=O)[C@H](CCCNC(=N)N)NC(=O)[C@H](CCSC)NC(=O)CNC(=O)[C@H](C)NC(=O)[C@H](CCCCN)NC(=O)[C@H](CCCCN)NC(=O)[C@@H]3CSSC[C@@H](C(=O)N[C@H](C(=O)N4CCC[C@H]4C(=O)N[C@@H](CCCCN)C(=O)O)[C@@H](C)O)NC(=O)[C@H](Cc4c[nH]cn4)NC(=O)[C@H](CSSC[C@H](NC(=O)[C@H](CCC(N)=O)NC(=O)[C@H](CCCNC(=N)N)NC(=O)[C@H](CO)NC1=O)C(=O)N[C@@H](CC(C)C)C(=O)N[C@@H](CCCNC(=N)N)C(=O)N1CCC[C@H]1C(=O)N3)NC(=O)[C@H](CCCCN)NC(=O)CNC(=O)[C@H](CC(N)=O)NC(=O)[C@H](CCSC)NC2=O [E16R] (H-GVIINVKCKISRQCLRPCKKAGMRFGKCMNGKCHCTPK-OH; disulfide 8-28, 14-33, 18-35)	0.454	0.556
CC[C@H](C)[C@@H]1NC(=O)[C@H](CCCCN)NC(=O)[C@@H](NC(=O)[C@H](CCCCN)NC(=O)[C@@H](NC(=O)[C@H](CC(N)=O)NC(=O)[C@@H](NC(=O)[C@@H](NC(=O)[C@@H](NC(=O)CN)C(C)C)[C@@H](C)CC)[C@@H](C)CC)C(C)C)CSSC[C@@H]2NC(=O)[C@H](CCCCN)NC(=O)CNC(=O)[C@H](C)NC(=O)[C@H](CCCNC(=N)N)NC(=O)[C@H](CCSC)NC(=O)CNC(=O)[C@H](C)NC(=O)[C@H](CCCCN)NC(=O)[C@H](CCCCN)NC(=O)[C@@H]3CSSC[C@@H](C(=O)N[C@H](C(=O)N4CCC[C@H]4C(=O)N[C@@H](CCCCN)C(=O)O)[C@@H](C)O)NC(=O)[C@H](Cc4c[nH]cn4)NC(=O)[C@H](CSSC[C@H](NC(=O)[C@H](CCC(N)=O)NC(=O)[C@H](CCCNC(=N)N)NC(=O)[C@H](CO)NC1=O)C(=O)N[C@@H](CC(C)C)C(=O)N[C@@H](CCC(=O)O)C(=O)N1CCC[C@H]1C(=O)N3)NC(=O)[C@H](CCCCN)NC(=O)CNC(=O)[C@H](CC(N)=O)NC(=O)[C@H](CCSC)NC2=O [F25A] (H-GVIINVKCKISRQCLEPCKKAGMRAGKCMNGKCHCTPK-OH; disulfide 8-28, 14-33, 18-35)	3.08	3.08
CC[C@H](C)[C@@H]1NC(=O)[C@H](CCCCN)NC(=O)[C@@H](NC(=O)[C@H](CCCCN)NC(=O)[C@@H](NC(=O)[C@H](CC(N)=O)NC(=O)[C@@H](NC(=O)[C@@H](NC(=O)[C@@H](NC(=O)CN)C(C)C)[C@@H](C)CC)[C@@H](C)CC)C(C)C)CSSC[C@@H]2NC(=O)[C@H](CCCCN)NC(=O)CNC(=O)[C@H](Cc3cccc4ccccc34)NC(=O)[C@H](CCCNC(=N)N)NC(=O)[C@H](CCSC)NC(=O)CNC(=O)[C@H](C)NC(=O)[C@H](CCCCN)NC(=O)[C@H](CCCCN)NC(=O)[C@@H]3CSSC[C@@H](C(=O)N[C@H](C(=O)N4CCC[C@H]4C(=O)N[C@@H](CCCCN)C(=O)O)[C@@H](C)O)NC(=O)[C@H](Cc4c[nH]cn4)NC(=O)[C@H](CSSC[C@H](NC(=O)[C@H](CCC(N)=O)NC(=O)[C@H](CCCNC(=N)N)NC(=O)[C@H](CO)NC1=O)C(=O)N[C@@H](CC(C)C)C(=O)N[C@@H](CCC(=O)O)C(=O)N1CCC[C@H]1C(=O)N3)NC(=O)[C@H](CCCCN)NC(=O)CNC(=O)[C@H](CC(N)=O)NC(=O)[C@H](CCSC)NC2=O [F25Nal] (H-GVIINVKCKISRQCLEPCKKAGMR[1Nal]GKCMNGKCHCTPK-OH; disulfide 8-28, 14-33, 18-35)	1.69	1.73
CC[C@H](C)[C@@H]1NC(=O)[C@H](CCCCN)NC(=O)[C@@H](NC(=O)[C@H](CCCCN)NC(=O)[C@@H](NC(=O)[C@H](CC(N)=O)NC(=O)[C@@H](NC(=O)[C@@H](NC(=O)[C@@H](NC(=O)CN)C(C)C)[C@@H](C)CC)[C@@H](C)CC)C(C)C)CSSC[C@@H]2NC(=O)[C@H](CCCCN)NC(=O)CNC(=O)[C@H](CCCNC(=N)N)NC(=O)[C@H](CCCNC(=N)N)NC(=O)[C@H](CCSC)NC(=O)CNC(=O)[C@H](C)NC(=O)[C@H](CCCCN)NC(=O)[C@H](CCCCN)NC(=O)[C@@H]3CSSC[C@@H](C(=O)N[C@H](C(=O)N4CCC[C@H]4C(=O)N[C@@H](CCCCN)C(=O)O)[C@@H](C)O)NC(=O)[C@H](Cc4c[nH]cn4)NC(=O)[C@H](CSSC[C@H](NC(=O)[C@H](CCC(N)=O)NC(=O)[C@H](CCCNC(=N)N)NC(=O)[C@H](CO)NC1=O)C(=O)N[C@@H](CC(C)C)C(=O)N[C@@H](CCC(=O)O)C(=O)N1CCC[C@H]1C(=O)N3)NC(=O)[C@H](CCCCN)NC(=O)CNC(=O)[C@H](CC(N)=O)NC(=O)[C@H](CCSC)NC2=O [F25R] (H-GVIINVKCKISRQCLEPCKKAGMRRGKCMNGKCHCTPK-OH; disulfide 8-28, 14-33, 18-35)	31	25
CC[C@H](C)[C@@H]1NC(=O)[C@H](CCCCN)NC(=O)[C@@H](NC(=O)[C@H](CCCCN)NC(=O)[C@@H](NC(=O)[C@H](CC(N)=O)NC(=O)[C@@H](NC(=O)[C@@H](NC(=O)[C@@H](NC(=O)[C@H](C)N)C(C)C)[C@@H](C)CC)[C@@H](C)CC)C(C)C)CSSC[C@@H]2NC(=O)[C@H](CCCCN)NC(=O)CNC(=O)[C@H](Cc3ccccc3)NC(=O)[C@H](CCCNC(=N)N)NC(=O)[C@H](CCSC)NC(=O)CNC(=O)[C@H](C)NC(=O)[C@H](CCCCN)NC(=O)[C@H](CCCCN)NC(=O)[C@@H]3CSSC[C@@H](C(=O)N[C@H](C(=O)N4CCC[C@H]4C(=O)N[C@@H](CCCCN)C(=O)O)[C@@H](C)O)NC(=O)[C@H](Cc4c[nH]cn4)NC(=O)[C@H](CSSC[C@H](NC(=O)[C@H](CCC(N)=O)NC(=O)[C@H](CCCNC(=N)N)NC(=O)[C@H](CO)NC1=O)C(=O)N[C@@H](CC(C)C)C(=O)N[C@@H](CCC(=O)O)C(=O)N1CCC[C@H]1C(=O)N3)NC(=O)[C@H](CCCCN)NC(=O)CNC(=O)[C@H](CC(N)=O)NC(=O)[C@H](CCSC)NC2=O [G1A] (H-AVIINVKCKISRQCLEPCKKAGMRFGKCMNGKCHCTPK-OH; disulfide 8-28, 14-33, 18-35)	0.119	0.122
CC[C@H](C)[C@@H]1NC(=O)[C@H](CCCCN)NC(=O)[C@@H](NC(=O)[C@H](CCCCN)NC(=O)[C@@H](NC(=O)[C@H](CC(N)=O)NC(=O)[C@@H](NC(=O)[C@@H](NC(=O)[C@@H](NC(=O)[C@@H](N)CCC(=O)O)C(C)C)[C@@H](C)CC)[C@@H](C)CC)C(C)C)CSSC[C@@H]2NC(=O)[C@H](CCCCN)NC(=O)CNC(=O)[C@H](Cc3ccccc3)NC(=O)[C@H](CCCNC(=N)N)NC(=O)[C@H](CCSC)NC(=O)CNC(=O)[C@H](C)NC(=O)[C@H](CCCCN)NC(=O)[C@H](CCCCN)NC(=O)[C@@H]3CSSC[C@@H](C(=O)N[C@H](C(=O)N4CCC[C@H]4C(=O)N[C@@H](CCCCN)C(=O)O)[C@@H](C)O)NC(=O)[C@H](Cc4c[nH]cn4)NC(=O)[C@H](CSSC[C@H](NC(=O)[C@H](CCC(N)=O)NC(=O)[C@H](CCCNC(=N)N)NC(=O)[C@H](CO)NC1=O)C(=O)N[C@@H](CC(C)C)C(=O)N[C@@H](CCC(=O)O)C(=O)N1CCC[C@H]1C(=O)N3)NC(=O)[C@H](CCCCN)NC(=O)CNC(=O)[C@H](CC(N)=O)NC(=O)[C@H](CCSC)NC2=O [G1E] (H-EVIINVKCKISRQCLEPCKKAGMRFGKCMNGKCHCTPK-OH; disulfide 8-28, 14-33, 18-35)	1.25	1.22
CC[C@H](C)[C@@H]1NC(=O)[C@H](CCCCN)NC(=O)[C@@H](NC(=O)[C@H](CCCCN)NC(=O)[C@@H](NC(=O)[C@H](CC(N)=O)NC(=O)[C@@H](NC(=O)[C@@H](NC(=O)[C@@H](NC(=O)[C@@H](N)CCCNC(=N)N)C(C)C)[C@@H](C)CC)[C@@H](C)CC)C(C)C)CSSC[C@@H]2NC(=O)[C@H](CCCCN)NC(=O)CNC(=O)[C@H](Cc3ccccc3)NC(=O)[C@H](CCCNC(=N)N)NC(=O)[C@H](CCSC)NC(=O)CNC(=O)[C@H](C)NC(=O)[C@H](CCCCN)NC(=O)[C@H](CCCCN)NC(=O)[C@@H]3CSSC[C@@H](C(=O)N[C@H](C(=O)N4CCC[C@H]4C(=O)N[C@@H](CCCCN)C(=O)O)[C@@H](C)O)NC(=O)[C@H](Cc4c[nH]cn4)NC(=O)[C@H](CSSC[C@H](NC(=O)[C@H](CCC(N)=O)NC(=O)[C@H](CCCNC(=N)N)NC(=O)[C@H](CO)NC1=O)C(=O)N[C@@H](CC(C)C)C(=O)N[C@@H](CCC(=O)O)C(=O)N1CCC[C@H]1C(=O)N3)NC(=O)[C@H](CCCCN)NC(=O)CNC(=O)[C@H](CC(N)=O)NC(=O)[C@H](CCSC)NC2=O [G1R] (H-RVIINVKCKISRQCLEPCKKAGMRFGKCMNGKCHCTPK-OH; disulfide 8-28, 14-33, 18-35)	0.991	0.554
